Measured values from patent US20150141381A1, “TETRACYCLINE COMPOUNDS HAVING TARGET THERAPEUTIC ACTIVITIES” (Paratek Pharmaceuticals, Inc., priority 2001, published 2015).
Like-named read-outs stand apart in the source and are kept apart here.

What was measured:
E. coli mL308 225 = test: In Vitro Anti-Bacterial Activity Assay (MIC), gram negative; format: cell-based; conditions: for MIC: Escherichia coli, ML308225, 18 h
S. aureus RN450 = test: In Vitro Anti-Bacterial Activity Assay (MIC), gram positive; format: cell-based; conditions: for MIC: Staphylococcus aureus, RN450, 18 h
[1] = MIC class, Table 3, read-out: Antibiotic Activity Gram −
[2] = MIC class, Table 3, read-out: Antibiotic Activity Gram +
[3] = MIC class, Table 3 (Continued), read-out: Gram− activity
[4] = MIC class, Table 3 (Continued), read-out: Gram+ activity
[5] = gram positive bacteria, read-out: Antibiotic Activity Gram + (MIC)
[6] = gram negative bacteria, read-out: Antibiotic Activity Gram − (MIC)

Compound | MIC (E. coli mL308 225; [1]) | MIC (S. aureus RN450; [2]) | MIC (S. aureus RN450; [5]) | MIC (E. coli mL308 225; [6]) | also measured
CC(O)C#Cc1ccc(O)c2c1C[C@H]1C[C@H]3[C@H](N(C)C)C(O)=C(C(N)=O)C(=O)[C@@]3(O)C(O)=C1C2=O (stereo partly drawn) [BD] | < 4 µg/mL | < 4 µg/mL | – | – | –
CC(C)NCc1ccc(-c2ccc(O)c3c2C[C@H]2C[C@H]4[C@@H](N(C)C)C(O)=C(C(N)=O)C(=O)[C@@]4(O)C(O)=C2C3=O)o1 [HN] | < 4 µg/mL | < 4 µg/mL | – | – | –
CCOC(=O)/C=C/c1ccc2c(c1O)C(=O)C1=C(O)[C@]3(O)C(=O)C(C(N)=O)=C(O)[C@@H](N(C)C)[C@@H]3[C@@H](O)[C@@H]1C2C (stereo partly drawn) | – | – | – | – | MIC (E. coli mL308 225; [3]): < 4 µg/mL; MIC (S. aureus RN450; [4]): < 4 µg/mL
CN(C)c1ccc(O)c2c1C[C@H]1C[C@H]3[C@H](N(C)C)C(O)=C(C(N)=O)C(=O)[C@@]3(O)C(O)=C1C2=O [B] | < 4 µg/mL | < 4 µg/mL | – | – | –
CN(C)[C@@H]1C(O)=C(C(N)=O)C(=O)[C@@]2(O)C(O)=C3C(=O)c4c(O)ccc(C#Cc5cccnc5)c4C[C@H]3C[C@@H]12 | – | – | – | – | MIC (E. coli mL308 225; [3]): < 4 µg/mL; MIC (S. aureus RN450; [4]): < 4 µg/mL
CC(CF)NCc1ccc(O)c2c1C[C@H]1C[C@H]3[C@H](N(C)C)C(O)=C(C(N)=O)C(=O)[C@@]3(O)C(O)=C1C2=O (stereo partly drawn) | – | – | < 4 µg/mL | – | MIC (E. coli mL308 225; read-out: Antibiotic Activity Gram − (MIC)): > 4 µg/mL
COC(=O)C(CO)NC(=O)c1cccc(-c2ccc(O)c3c2C[C@H]2C[C@H]4[C@H](N(C)C)C(O)=C(C(N)=O)C(=O)[C@@]4(O)C(O)=C2C3=O)c1 (stereo partly drawn) | – | – | < 4 µg/mL | > 4 µg/mL | –
CCCc1cc(N(C)C)c2c(c1O)C(=O)C1=C(O)[C@]3(O)C(=O)C(C(N)=O)=C(O)[C@@H](N(C)C)[C@@H]3C[C@@H]1C2 | – | – | < 4 µg/mL | > 4 µg/mL | –
CN(C)C(=O)/C=C/c1ccc(O)c2c1C[C@H]1C[C@H]3[C@H](N(C)C)C(O)=C(C(N)=O)C(=O)[C@@]3(O)C(O)=C1C2=O [AQ] | < 4 µg/mL | < 4 µg/mL | – | – | –
CN(C)c1cc(NCc2ccccc2C[C@H]2O[C@@H](CO)[C@@H](O)[C@@H](O)[C@H]2O)c(O)c2c1C[C@H]1C[C@H]3[C@H](N(C)C)C(O)=C(C(N)=O)C(=O)[C@@]3(O)C(O)=C1C2=O | – | – | > 4 µg/mL | > 4 µg/mL | –
CCc1cc(CN2CCC(F)(F)CC2)c(O)c2c1C[C@H]1C[C@H]3[C@H](N(C)C)C(O)=C(C(N)=O)C(=O)[C@@]3(O)C(O)=C1C2=O [drawing 3695] | – | – | < 4 µg/mL | < 4 µg/mL | –
CN1CCC(NCc2ccc3c(c2O)C(=O)C2=C(O)[C@]4(O)C(=O)C(C(N)=O)=C(O)[C@@H](N(C)C)[C@@H]4C[C@@H]2C3)CC1 | – | – | > 4 µg/mL | > 4 µg/mL | –
CCCC#Cc1cc(N(C)C)c2c(c1O)C(=O)C1=C(O)[C@]3(O)C(=O)C(C(N)=O)=C(O)[C@@H](N(C)C)[C@@H]3C[C@@H]1C2 [DY] | > 4 µg/mL | < 4 µg/mL | – | – | –
CC1c2cccc(O)c2C(=O)C2=C(O)[C@]3(O)C(=O)C(C(N)=O)=C(O)[C@@H](N(C)C)[C@@H]3[C@@H](OC(=O)C3CCC3)[C@@H]21 (stereo partly drawn) | – | – | – | – | MIC (E. coli mL308 225; [3]): < 4 µg/mL; MIC (S. aureus RN450; [4]): < 4 µg/mL
C#CCOC(=O)Nc1ccc2c(c1O)C(=O)C1=C(O)[C@]3(O)C(=O)C(C(N)=O)=C(O)[C@@H](N(C)C)[C@@H]3C[C@@H]1C2 | – | – | < 4 µg/mL | < 4 µg/mL | –
CCOc1ccc(/C=C2\c3cccc(O)c3C(=O)C3=C(O)[C@]4(O)C(=O)C(C(N)=O)=C(O)[C@@H](N(C)C)[C@@H]4[C@@H](O)[C@@H]32)cc1 | – | – | – | – | MIC (E. coli mL308 225; [3]): > 4 µg/mL; MIC (S. aureus RN450; [4]): < 4 µg/mL
Cc1csc(NCc2cc(N(C)C)c3c(c2O)C(=O)C2=C(O)[C@]4(O)C(=O)C(C(N)=O)=C(O)C(N(C)C)[C@@H]4C[C@@H]2C3)n1 (stereo partly drawn) [MS] | > 4 µg/mL | < 4 µg/mL | – | – | –

Compound | MIC (E. coli mL308 225; [1]) | MIC (S. aureus RN450; [2]) | MIC (S. aureus RN450; [5]) | MIC (E. coli mL308 225; [6]) | also measured
CN(C)CC(=O)NCc1cc(N(C)C)c2c(c1O)C(=O)C1=C(O)[C@]3(O)C(=O)C(C(N)=O)=C(O)[C@@H](N(C)C)[C@@H]3C[C@@H]1C2 | – | – | < 4 µg/mL | > 4 µg/mL | –
C[C@H]1c2ccc(CN3CCC(F)(F)CC3)c(O)c2C(=O)C2=C(O)[C@]3(O)C(=O)C(C(N)=O)=C(O)[C@@H](N(C)C)[C@@H]3[C@@H](O)[C@@H]21 | – | – | < 4 µg/mL | < 4 µg/mL | –
CCN(CC)c1ccc(-c2c[nH]c(Nc3ccc4c(c3O)C(=O)C3=C(O)[C@]5(O)C(=O)C(C(N)=O)=C(O)[C@@H](N(C)C)[C@@H]5[C@@H](O)[C@@H]3[C@H]4C)n2)cc1 | – | – | – | – | MIC (E. coli mL308 225; [3]): > 4 µg/mL; MIC (S. aureus RN450; [4]): < 4 µg/mL
CC1c2ccc(-c3ccccc3)c(O)c2C(=O)C2=C(O)[C@]3(O)C(=O)C(C(N)=O)=C(O)[C@@H](N(C)C)[C@@H]3[C@@H](O)[C@@H]21 (stereo partly drawn) | – | – | – | – | MIC (E. coli mL308 225; [3]): < 4 µg/mL; MIC (S. aureus RN450; [4]): < 4 µg/mL
CN(C)c1cc(F)c(O)c2c1C[C@H]1C[C@H]3C(N(C)C)C(O)=C(C(N)=O)C(=O)[C@@]3(O)C(O)=C1C2=O (stereo partly drawn) [KZ] | < 4 µg/mL | < 4 µg/mL | – | – | –
CC(C)CN(C=O)Cc1cc(N(C)C)c2c(c1O)C(=O)C1=C(O)[C@]3(O)C(=O)C(C(N)=O)=C(O)[C@@H](N(C)C)[C@@H]3C[C@@H]1C2 | – | – | > 4 µg/mL | > 4 µg/mL | –
COc1ccc(-c2ccc(O)c3c2C[C@H]2C[C@H]4[C@H](N(C)C)C(O)=C(C(N)=O)C(=O)[C@@]4(O)C(O)=C2C3=O)cc1CN1CCN(CCO)CC1 [KA] | > 4 µg/mL | < 4 µg/mL | – | – | –
CN(C)[C@H]1C(O)=C(C(N)=O)C(=O)[C@@]2(O)C(O)=C3C(=O)c4c(O)ccc(-c5ccc(/N=C\NC(C)(C)C)cc5)c4C[C@H]3C[C@@H]12 [GU] | < 4 µg/mL | < 4 µg/mL | – | – | –
CC(C)Cc1ccc(O)c2c1C[C@H]1C[C@H]3[C@H](N(C)C)C(O)=C(C(N)=O)C(=O)[C@@]3(O)C(O)=C1C2=O | – | – | < 4 µg/mL | < 4 µg/mL | –
CC(C)CNCc1cc(N(C)C)c2c(c1O)C(=O)C1=C(O)[C@]3(O)C(=O)C(C(N)=O)=C(O)[C@@H](N(C)C)[C@@H]3C[C@@H]1C2 [drawing 3371] | – | – | – | – | Antibiotic Activity Gram − (MIC) (E. coli mL308 225; gram negative bacteria): ** (compounds with MIC less than or equal to 4 μg/ml are indicated with **); Antibiotic Activity Gram + (MIC) (S. aureus RN450; gram positive bacteria): ** (compounds with MIC less than or equal to 4 μg/ml are indicated with **)
CCCCCCOC(=O)NCc1cc(N(C)C)c2c(c1O)C(=O)C1=C(O)[C@]3(O)C(=O)C(C(N)=O)=C(O)[C@@H](N(C)C)[C@@H]3C[C@@H]1C2 [FE] | > 4 µg/mL | < 4 µg/mL | – | – | –
C[C@H]1c2ccc(CNCCC(F)(F)F)c(O)c2C(=O)C2=C(O)[C@]3(O)C(=O)C(C(N)=O)=C(O)[C@@H](N(C)C)[C@@H]3[C@@H](O)[C@@H]21 | – | – | < 4 µg/mL | < 4 µg/mL | –
CN(C)c1cc(C#CC2=CCCC2)c(O)c2c1C[C@H]1C[C@H]3[C@H](N(C)C)C(O)=C(C(N)=O)C(=O)[C@@]3(O)C(O)=C1C2=O | – | – | < 4 µg/mL | < 4 µg/mL | –
CN(C)[C@@H]1C(O)=C(C(N)=O)C(=O)[C@@]2(O)C(O)=C3C(=O)c4c(O)ccc(-c5ccc6c(c5)OCO6)c4C[C@H]3C[C@@H]12 [drawing 3286] | – | – | – | – | MIC (E. coli mL308 225; [3]): < 4 µg/mL; MIC (S. aureus RN450; [4]): < 4 µg/mL
CN(C)c1cc(CNCc2ccc(OC(F)(F)F)cc2)c(O)c2c1C[C@H]1C[C@H]3[C@H](N(C)C)C(O)=C(C(N)=O)C(=O)[C@@]3(O)C(O)=C1C2=O [PJ] | > 4 µg/mL | < 4 µg/mL | – | – | –
CCCC(C)(C)NC(=O)C1=C(O)[C@@H](N(C)C)[C@@H]2[C@@H](O)[C@H]3C(=C(O)[C@]2(O)C1=O)C(=O)c1c(O)cccc1[C@@H]3C [P] | – | < 4 µg/mL | – | – | –
CCOP(=O)(OCC)C(Nc1cc(N(C)C)c2c(c1O)C(=O)C1=C(O)[C@]3(O)C(=O)C(C(N)=O)=C(O)[C@@H](N(C)C)[C@@H]3C[C@@H]1C2)c1ccc(OC)cc1 (stereo partly drawn) [Z] | – | – | – | – | MIC (S. aureus RN450; read-out: Antibiotic Activity Gram +): < 4 µg/mL
